Data from patent EP4609859A1, “INHIBITORS OF THE GENE SMPD1 FOR THE TREATMENT OF SPINAL MUSCULAR ATROPHY” (Universidad Pablo de Olavide, priority 2024, dated 2025).

How the values were obtained:
nematode development = experiment: Visible effect of drug treatment on nematode development; format: in vivo, C. elegans; details: at the concentrations tested in the SMN-1 assay
Experimental: (§1) RNAi feeding was performed as described (Kamath and Ahringer, 2003). RNAi clones belong to the Aringher gene library were used: JA:C41G7.1 (smn-1), JA:T18D3.7 (tsct-1), JA:WO3G1.7 (asm-3), JA:C07A12.7 (C07A12.7), JA:C10E2.3 (hda-4), JA:K09A9.4 (usp-33), JA:R01B10.1 (cpi-2), JA:K08B4.6 (cpi-1), JA:K06A4.3 (gsnl-1), JA:F23H11.4 (F23H11.4), JA:T18H9.7 (pacs-1), JA:C41G7.1 (smn-1) and MV_SV: mv_ZK455.4 (asm-2) from Marc Vidal's gene library (Kim et al., 2005). For smn-1 expression assays, gravid hermaphrodites were transferred to empty plasmid pL4440 or RNAi plates, incubated at 20°C for 48 hours and the next generation was analyzed at the L4 stage. For the drug assay, NGM plates were prepared at the indicated concentrations and the respective vehicle was used as a control, then proceeded as in the RNAi assay.

SMPD1 [1] = molecular target: T1, SMPD1 (Homo sapiens, UniProt P17405); experiment: Immunofluorescence (CTCF) of SMPD1 in differentiated human SMA MNs; format: cell-based; details: SMAI MNs, 10µM, 24 h; untreated 126.7±5.74; p<0.0001
T1 construct: host or cells: human SMA type 2 patient fibroblasts (SMAII)
T1 sequence (P17405 47-631): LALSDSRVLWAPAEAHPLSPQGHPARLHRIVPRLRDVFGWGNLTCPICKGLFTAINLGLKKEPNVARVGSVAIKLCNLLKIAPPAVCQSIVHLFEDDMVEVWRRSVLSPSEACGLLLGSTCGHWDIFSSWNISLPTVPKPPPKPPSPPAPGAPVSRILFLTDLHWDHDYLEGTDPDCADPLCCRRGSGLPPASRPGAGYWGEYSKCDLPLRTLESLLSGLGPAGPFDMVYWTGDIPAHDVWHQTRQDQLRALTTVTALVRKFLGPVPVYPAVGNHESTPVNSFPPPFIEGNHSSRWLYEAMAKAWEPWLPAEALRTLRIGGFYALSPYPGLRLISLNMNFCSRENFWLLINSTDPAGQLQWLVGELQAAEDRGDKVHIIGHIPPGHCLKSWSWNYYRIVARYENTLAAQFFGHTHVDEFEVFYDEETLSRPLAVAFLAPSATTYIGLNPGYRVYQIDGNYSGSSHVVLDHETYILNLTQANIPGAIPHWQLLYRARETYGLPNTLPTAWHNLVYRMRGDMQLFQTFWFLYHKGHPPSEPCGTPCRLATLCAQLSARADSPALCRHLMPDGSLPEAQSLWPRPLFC
Text: Three human iPSCs lines were used in the present work. The GM23411*B (Coriell Institute) iPSC cell line obtained from a healthy […] individual was used as control. The GM23240*B (Coriell Institute) iPSCs obtained from a fibroblast cell line of a […] SMA type 2 patient (2 copies SMN2; deletion exon7-8 in SMN1) was used as SMAII condition. SMAII patient was previously classified as SMA type 1, but several data supported re-classification to SMA type 2. The CS84iSMA-nxx (Cedar Sinai, Los Angeles, USA) iPSCs obtained from a lymphoblast cell line of a […] SMA type 1 patient (2 copies SMN2; deletion exon7-8 in SMN1) was used as SMAI condition. […]
(§2) Cultured cells were fixed with 4% paraformaldehyde (Sigma) for 10 min and cold methanol (Sigma) for 30 min more. […] Quantification of fluorescence intensity was performed blinded, using the NIH ImageJ software (Schindelin et al., 2012). Using phase contrast images, the cell perimeter was manually delimited and transferred to the corresponding fluorescence images. The Integrated Density (IntDen) was measured in the selected area of the cell. Three non-fluorescent surrounding regions were measured to set up the background readings. The fluorescence intensity was calculated using the following formula: Corrected Total Cell Fluorescence (CTCF) = IntDen (sum of the values of the pixels in the selection) - (area of the cell x mean fluorescence of the background).

SMN protein [2] = experiment: Western blot of SMN in human SMA patient fibroblasts; format: cell-based; details: SMAII and SMAI fibroblasts, 5µM, 10µM, or 25µM, 24 h
Experimental: Fibroblasts were maintained in Eagle's Minimum Essential Medium (MEM) (Sigma) supplemented with 15% (v/v) non-inactivated fetal bovine serum (FBS) (Gibco), 0.5M of L-Glutamine (Gibco), 1% (v/v) non-essential amino acids, and 20µg/ml of Penicillin-Streptomycin (Gibco). For western blot analysis, cells were plated at 3,000-4,000 cells/cm2 in 35mm dishes and cultured in supplemented MEM for 24 h. For immunofluorescence experiments, 3,000 cells/well were plated in collagen-coated 1cm2 glass coverslips placed into four-well dishes and fixed in 4% paraformaldehyde (Sigma) in PBS.
Western blots were performed as previously described (Gou-Fabregas et al., 2009). Cell lysates were resolved in sodium dodecyl-sulfate polyacrylamide (SDS-PAGE) gels and transferred onto polyvinylidene difluoride (PVDF) Immobilon-P transfer membranes (Millipore, Burlington, MA, USA) using an Amersham Biosciences semidry Trans-Blot (Buckinghamshire, UK). Membranes were blotted with: anti-SMN (1: 5,000, Cat. No. 610646, BD Transduction Laboratories, Franklin Lakes, NJ, USA) and anti-SMPD1 (1: 300, Cat. No. 14609-1-AP, ProteinTech, Manchester, UK). To control the specific protein content per lane, membranes were reproved with anti-α-tubulin antibody (1: 50,000, Cat. No. T5168, Sigma). […]

SMN protein [3] = experiment: Western blot of SMN in iPSC-differentiated human SMA MNs; format: cell-based; details: remaining doses of 5µM, 10µM, 20µM in SMAI and SMAII MNs, 24 h
Text: Three human iPSCs lines were used in the present work. The GM23411*B (Coriell Institute) iPSC cell line obtained from a healthy […] individual was used as control. The GM23240*B (Coriell Institute) iPSCs obtained from a fibroblast cell line of a […] SMA type 2 patient (2 copies SMN2; deletion exon7-8 in SMN1) was used as SMAII condition. SMAII patient was previously classified as SMA type 1, but several data supported re-classification to SMA type 2. The CS84iSMA-nxx (Cedar Sinai, Los Angeles, USA) iPSCs obtained from a lymphoblast cell line of a […] SMA type 1 patient (2 copies SMN2; deletion exon7-8 in SMN1) was used as SMAI condition.
Human iPSCs were differentiated to MNs as previously described (de la Fuente et al., 2020; Du et al., 2015). Cell lines were cultured and expanded on Geltrex (Sigma)-coated plates in Essential 8 medium (Gibco). Neuroepithelial cells and MN progenitors were generated following the established protocol. To induce MN differentiation, MN progenitors were detached with Accutase (Gibco) and cultured in suspension in MN induction medium (DMEM/F12: NBM plus 1:1 supplemented with B27, L-glutamine [all from Gibco], 0.1mM ascorbic acid [Sigma], 3µM CHIR99021; 2µM SB431512, 2µM DMH1 [all from Cayman, Ann Harbor, MI, USA], 0.5µM retinoic acid [Sigma], and 0.1µM purmorphamine [Cayman]). […]

SMPD1 [4] = molecular target: T1, SMPD1; experiment: Immunofluorescence (CTCF) of SMPD1 in human SMA fibroblasts; format: cell-based; details: SMAII fibroblasts, 20µM, 24 h; untreated 105.8±5.64; p<0.0001
Experimental: Two human fibroblasts cell lines from SMA patients (GM03813, SMA type 2 patient, SMAII; and GM09677, SMA type 1 patient, SMAI) and one healthy control (GM03814, Control) were obtained and cultured following the manufacturer instructions. Fibroblasts were maintained in Eagle's Minimum Essential Medium (MEM) (Sigma) supplemented with 15% (v/v) non-inactivated fetal bovine serum (FBS) (Gibco), […] of L-Glutamine (Gibco), 1% (v/v) non-essential amino acids, and 20µg/ml of Penicillin-Streptomycin (Gibco). For western blot analysis, cells were plated at 3,000-4,000 cells/cm2 in 35mm dishes and cultured in supplemented MEM for 24 h. […]
as §2

SMN-1 = SMN-1 level by head fluorescence in C. elegans strain mCherry::smn-1 (PHX2635) after drug treatment; format: in vivo; details: for level of SMN-1, repeated experiments on different days: Fig. 11, vs non-treated animals
Text: C. elegans strains were cultivated under standard conditions (Stiernagle, 2006). The strains used are as follows: PHX2635: smn-1(syb2635); BN1158: bqSi1152[pBN521(unc-119(+) eft-3p::Frt::mCh::his-58::Frt::UPRT)]II; bqSi577[pBN306(unc-119(+) myo-2p::GFP)] IV. unc-119(ed9)III . The Escherichia coli strains used were: OP50 and HT115.
The strain PHX2635: smn-1(syb2635) was generated by CRISPR technology, we introduced the coding sequence of the fluorescent protein m-Cherry upstream of the TAA stop codon of the C. elegans SMN1 homologous gene, smn-1, as indicated in the sequence: [formula]
as §1, with “For smn-1 expression assays, gravid hermaphrodites were transferred to empty plasmid pL4440 or RNAi plates, incubated at 20°C for 48 hours and the next generation was analyzed at the L4 stage.” left out
L4 worms were mounted in a coverslip with a 2% agarose pad. C. elegans confocal images were acquired using a Nikon A1R microscope equipped with a 60x Plan Apo lens of Numerical Aperture 1.4. Twelve pictures were taken for each worm to be integrated in a Z image. […] Laser intensity, gain and pixel scan speed remained constant along all sets of experiments.
For image analysis, we used FIJI software. The experimentalist drew manually a ROI containing between the second pharynx bulb and the mouth of the nematode. Within this area, mCherry expression was detected using an intensity threshold that remained constant along all images. This minimum intensity level was defined by the experimenter. Within the thresholded volume, we measured the integrated density using the plugin 3D object counter (Bolte and Cordelières, 2006). […]

SMILES	visible effect on nematode development (nematode development)	SMPD1 relative fluorescence in cell soma (CTCF) (SMPD1 [1])	SMN protein level (SMN protein [2])	SMN protein compared to untreated control (SMN protein [3])	SMPD1 relative fluorescence in cell soma (CTCF) (SMPD1 [4])	SMN-1 level after treatment exclusively during the adult stage (SMN-1; 100 µM, 48 hours, started at adulthood, vs untreated)	level of SMN-1, repeated experiments on different days (SMN-1; 100 µM)	level of SMN-1, repeated experiments on different days (SMN-1; 500 µM)
CCOC(=O)C1=C(COCCN)NC(C)=C(C(=O)OC)C1c1ccccc1Cl (stereo not shown) [amlodipine]	delay in nematode development	–	–	–	–	–	–	–
CN(C)CCCN1c2ccccc2CCc2ccc(Cl)cc21 [clomipramine]	did not show a visible negative effect	91.62±3.64	did not increase SMN protein level	No significant differences	56.59±4.03	significant increase	statistically significant increase	–
CNCCCN1c2ccccc2CCc2ccccc21 [desipramine]	delay in nematode development	–	–	–	–	–	–	statistically significant increase
